The record followed here is PMC10108353, “Design and Pharmacological Characterization of α4β1 Integrin Cyclopeptide Agonists: Computational Investigation of Ligand Determinants for Agonism versus Antagonism” (Journal of Medicinal Chemistry, 2023).

For assay [1], the target named is T1, α4β1 integrin (Homo sapiens, UniProt P05556+P13612). Description: Competitive solid-phase binding assay, purified α4β1 / FN. On the set-up: purchased R&D Systems. Particulars: mean ± SD, three experiments in triplicate, read-out: Binding affinity IC50, α4β1/FN. The protocol:
(§1) For the evaluation of binding affinity to purified α4β1, αMβ2, and α4β7 integrins, competitive solid-phase ligand binding assays were performed as follows. […] Afterward, each well was washed and blocked for 1 h at RT. Purified integrins (α4β1: 0.5 μg/mL; α4β7: 0.5 μg/mL; αMβ2: 0.5 μg/mL; R&D Systems) were preincubated with serial dilutions of new compounds (10^–4 – 10^–10 M) for 30 min at RT and then plated into coated wells for 1 h at RT. After two washes, primary antibody (for α4β1 and α4β7: rabbit anti-α4, Abcam, 1:100 dilution; for αMβ2: rabbit anti-αM, Abcam, 1:100 dilution) was added and incubated for 1 h at RT. The plate was washed twice and then was incubated with anti-rabbit AlexaFluor488 secondary antibody (1:400 dilution, ThermoFischer Scientific) for 1 h at RT. After washing three times, fluorescence was measured as described in the previous section.
Target sequence in this assay (P05556 21-728 limits assumed, one chain of several): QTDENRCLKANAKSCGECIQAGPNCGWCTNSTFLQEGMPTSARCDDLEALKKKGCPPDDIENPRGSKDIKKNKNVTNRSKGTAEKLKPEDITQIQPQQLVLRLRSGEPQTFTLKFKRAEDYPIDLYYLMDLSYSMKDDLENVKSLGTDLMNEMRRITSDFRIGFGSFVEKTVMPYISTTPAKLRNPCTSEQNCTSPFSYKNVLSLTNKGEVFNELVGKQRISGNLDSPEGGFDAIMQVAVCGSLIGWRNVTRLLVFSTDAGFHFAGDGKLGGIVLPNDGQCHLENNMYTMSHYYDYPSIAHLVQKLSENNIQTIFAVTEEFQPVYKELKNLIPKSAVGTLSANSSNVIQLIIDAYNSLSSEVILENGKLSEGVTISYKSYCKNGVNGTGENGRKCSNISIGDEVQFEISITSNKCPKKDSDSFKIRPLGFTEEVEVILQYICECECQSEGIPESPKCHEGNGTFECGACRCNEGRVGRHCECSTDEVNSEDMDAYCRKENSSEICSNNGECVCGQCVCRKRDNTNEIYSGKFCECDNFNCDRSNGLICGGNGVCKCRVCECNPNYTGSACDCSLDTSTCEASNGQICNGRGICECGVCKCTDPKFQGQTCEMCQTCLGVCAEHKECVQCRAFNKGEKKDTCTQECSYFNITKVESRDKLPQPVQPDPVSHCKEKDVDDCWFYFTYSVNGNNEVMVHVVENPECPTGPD

For a further assay, the target named is T2, α4β7 integrin (Homo sapiens, UniProt P13612+P26010).
T2 construct: RPMI8866 cells expressing α4β7 integrin to the ligand MAdCAM-1; endogenous in cells; host or cells: RPMI8866
T2 sequence (P13612 34-1032): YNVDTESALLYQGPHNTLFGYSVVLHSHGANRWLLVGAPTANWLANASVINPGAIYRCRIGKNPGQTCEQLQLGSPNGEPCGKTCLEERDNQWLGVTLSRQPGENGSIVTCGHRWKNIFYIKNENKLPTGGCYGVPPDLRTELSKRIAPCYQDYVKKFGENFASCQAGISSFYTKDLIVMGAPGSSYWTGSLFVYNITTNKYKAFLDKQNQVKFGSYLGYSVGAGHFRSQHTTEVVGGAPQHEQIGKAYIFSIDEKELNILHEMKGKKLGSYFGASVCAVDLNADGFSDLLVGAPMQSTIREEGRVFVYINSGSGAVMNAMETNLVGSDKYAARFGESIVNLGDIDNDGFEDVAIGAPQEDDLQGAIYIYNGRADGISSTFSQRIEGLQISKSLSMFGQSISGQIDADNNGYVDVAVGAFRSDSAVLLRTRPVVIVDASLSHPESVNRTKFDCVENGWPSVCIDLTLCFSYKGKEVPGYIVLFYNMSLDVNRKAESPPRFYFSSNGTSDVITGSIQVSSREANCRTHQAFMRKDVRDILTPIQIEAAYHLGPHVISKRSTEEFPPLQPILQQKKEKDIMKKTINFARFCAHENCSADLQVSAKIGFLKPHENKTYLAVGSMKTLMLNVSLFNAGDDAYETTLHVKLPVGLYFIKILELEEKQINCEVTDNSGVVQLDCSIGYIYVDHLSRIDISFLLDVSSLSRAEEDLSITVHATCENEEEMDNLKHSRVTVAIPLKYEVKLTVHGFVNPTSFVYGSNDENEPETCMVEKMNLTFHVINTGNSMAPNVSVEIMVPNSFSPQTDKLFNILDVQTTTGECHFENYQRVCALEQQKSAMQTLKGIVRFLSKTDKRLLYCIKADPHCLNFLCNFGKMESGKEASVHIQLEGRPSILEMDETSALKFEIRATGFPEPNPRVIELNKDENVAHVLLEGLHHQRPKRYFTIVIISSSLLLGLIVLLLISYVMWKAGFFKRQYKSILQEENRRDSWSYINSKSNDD
T2 sequence (P26010 20-798): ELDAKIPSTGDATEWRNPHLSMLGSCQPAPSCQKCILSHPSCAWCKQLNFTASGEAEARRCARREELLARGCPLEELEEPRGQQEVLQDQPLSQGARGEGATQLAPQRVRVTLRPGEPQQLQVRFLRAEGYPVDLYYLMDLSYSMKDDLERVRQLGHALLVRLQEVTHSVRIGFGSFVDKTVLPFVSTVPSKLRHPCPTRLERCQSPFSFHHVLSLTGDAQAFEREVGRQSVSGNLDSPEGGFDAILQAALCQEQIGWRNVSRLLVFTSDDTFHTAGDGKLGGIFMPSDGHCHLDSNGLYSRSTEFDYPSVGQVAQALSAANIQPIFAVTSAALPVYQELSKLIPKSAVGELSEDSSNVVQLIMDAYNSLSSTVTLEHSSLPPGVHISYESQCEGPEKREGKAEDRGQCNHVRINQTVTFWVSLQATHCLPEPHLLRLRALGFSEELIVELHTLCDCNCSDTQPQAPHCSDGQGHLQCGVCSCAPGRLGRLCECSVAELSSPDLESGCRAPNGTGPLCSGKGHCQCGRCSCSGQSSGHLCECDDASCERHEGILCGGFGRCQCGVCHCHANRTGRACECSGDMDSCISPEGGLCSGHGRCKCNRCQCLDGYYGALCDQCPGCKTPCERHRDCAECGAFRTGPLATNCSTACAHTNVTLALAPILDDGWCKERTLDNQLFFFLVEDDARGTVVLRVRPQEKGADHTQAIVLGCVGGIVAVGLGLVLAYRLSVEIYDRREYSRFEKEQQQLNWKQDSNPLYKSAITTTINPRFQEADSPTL
Description: cell-based. Format: cell-based. Particulars: for IC50: reduction of cell adhesion, >5000 = inactive compounds (IC50/EC50), read-out: IC50 for antagonists, MAdCAM-1/RPMI8866 α4β7. An excerpt:
(§2) mediated Jurkat cell adhesion to FN.

In another assay the target is αLβ2 integrin (Homo sapiens, UniProt P05107+P20701). In words: Competitive solid-phase binding assay, purified αLβ2 / ICAM-1. Particulars: read-out: Binding affinity IC50, αLβ2/ICAM-1. The procedure:
Solid-phase ligand binding assays on purified integrin were conducted as previously described[34] with the following modifications. […] The following day, wells were blocked with TSB buffer (20 mM Tris-HCl, 150 mM NaCl, 1 mM CaCl2, 1 mM MgCl2, 1 mM MnCl2, pH 7.5, 1% BSA) for 1 h at room temperature. Purified α5β1 (10 μg/mL) or αLβ2 (7 μg/mL) was incubated with the new synthesized compounds, at different concentrations (10^–4 to 10^–10 M), in coated wells for 1 h at RT. Then, after three washes with PBST buffer, primary antibody (anti-α5β1, BD Bioscience, 1:100 dilution or anti-αL, Abcam, 1:200 dilution) was added for 1 h at RT. Then antirabbit AlexaFluor488-secondary antibody (ThermoFisher Scientific, 1:400 dilution) was added after three washes with PBST buffer and incubated 1 h at room temperature.

In a further assay the target is αMβ2 integrin (Homo sapiens, UniProt P05107+P11215). In words: HL60 cell adhesion to fibrinogen (Fg). As to conditions: read-out: IC50 for antagonists, Fg/HL60 αMβ2. Format: cell-based.
Description: as §2

Assay [2] deals with T1, α4β1 integrin. Description: Competitive solid-phase binding assay, purified α4β1 / VCAM-1. On the set-up: purchased R&D Systems. As to conditions: read-out: Binding affinity IC50, α4β1/VCAM-1. The protocol:
as §1
Target sequence in this assay (P05556 21-728 limits assumed, one chain of several): as the sequence (P05556 21-728 limits assumed, one chain of several) above

For assay [3], the target named is T1, α4β1 integrin. In words: Jurkat E6.1 cell adhesion to FN. As to conditions: for agonist or antagonist behaviour, FN/Jurkat E6.1 α4β1: agonist = adhesion index >1, antagonist = adhesion index <1.
Target sequence in this assay (P05556 21-798, one chain of several): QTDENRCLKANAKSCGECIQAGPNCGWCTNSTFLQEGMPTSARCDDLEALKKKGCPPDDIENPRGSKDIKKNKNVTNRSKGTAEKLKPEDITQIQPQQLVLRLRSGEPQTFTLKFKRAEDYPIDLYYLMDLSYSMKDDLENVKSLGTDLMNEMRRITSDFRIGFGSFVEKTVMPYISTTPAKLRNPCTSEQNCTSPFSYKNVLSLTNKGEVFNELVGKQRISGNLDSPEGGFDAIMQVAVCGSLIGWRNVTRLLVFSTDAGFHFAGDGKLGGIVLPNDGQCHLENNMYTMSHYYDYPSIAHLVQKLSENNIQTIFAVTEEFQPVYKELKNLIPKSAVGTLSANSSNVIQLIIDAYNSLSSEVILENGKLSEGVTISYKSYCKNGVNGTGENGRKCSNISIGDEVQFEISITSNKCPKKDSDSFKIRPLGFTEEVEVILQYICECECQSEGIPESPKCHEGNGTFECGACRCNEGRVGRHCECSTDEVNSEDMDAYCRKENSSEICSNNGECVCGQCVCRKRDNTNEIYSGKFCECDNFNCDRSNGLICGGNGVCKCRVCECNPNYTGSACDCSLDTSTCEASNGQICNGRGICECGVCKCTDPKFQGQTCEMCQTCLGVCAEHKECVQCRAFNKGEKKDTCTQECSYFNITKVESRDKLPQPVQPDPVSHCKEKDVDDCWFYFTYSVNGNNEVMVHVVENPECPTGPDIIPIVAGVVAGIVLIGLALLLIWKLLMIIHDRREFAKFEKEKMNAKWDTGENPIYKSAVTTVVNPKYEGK
Description: Cells were seeded in 96-well plates coated with the specific natural human recombinant ligands (Table 1) and allowed to adhere in the presence of increasing concentrations (10^–10 to 10^–4 M) of the synthesized CPPs before the determination of the number of adherent cells (as described in Experimental Section).
For adhesion assays on Jurkat E6.1, RPMI8866, or HL60 cells, black 96-well plates were coated overnight at 4 °C with VCAM-1 or ICAM-1 or MAdCAM-1 (5 μg/mL) or Fg (10 μg/mL). The cells were counted, stained with CellTracker green CMFDA (12.5 μM, 30 min at 37 °C, Life Technologies), and after three washes, were preincubated with increasing concentrations of new CPP (10^–10 to 10^–4 M) or with the vehicle (methanol) for 30 min at 37 °C. Then cells were plated (500 000/well) on coated wells and incubated for 30 min at 37 °C. After three washes, adhered cells were lysed with 0.5% Triton X-100 in PBS (30 min at 4 °C) and fluorescence was measured (Ex485 nm/Em535 nm) in an EnSpire Multimode Plate Reader (PerkinElmer, Waltham, MA). For adhesion assays mediated by α5β1 integrin, 96-well plates were coated by passive adsorption with FN (10 μg/mL) overnight at 4 °C. K562 cells were counted and preincubated with various concentrations of the peptides or with the vehicle (methanol) for 30 min at RT. Afterward, the cells were plated (50 000 cells/well) and incubated at RT for 1 h. The wells were then washed with 1% BSA in PBS (phosphate-buffered saline) to take off nonadherent cells, and 50 μL of hexosaminidase substrate was added; after addition of 100 μL of stopping solution, the plates were read at 405 nm. In both types of adhesion assay, the number of adherent cells was determined by comparison with a standard curve made in the same plate. Experiments were carried out in quadruplicate and repeated at least three times.
Jurkat E6.1 (expressing α4β1 and αLβ2 integrin), K562 (expressing α5β1 integrin) and HL60 (expressing αMβ2 integrin) cell lines were purchased from ATCC (Rockville, MD, USA); these cells were routinely cultured in RPMI-1640 (Life Technologies) supplemented with glutamine and 10% FBS.
Cells were grown at 37 °C under 5% CO2 humidified atmosphere.

Where only a bound is given, the exact number is not on record here.

αLβ2 integrin, sequence (P20701 26-1170): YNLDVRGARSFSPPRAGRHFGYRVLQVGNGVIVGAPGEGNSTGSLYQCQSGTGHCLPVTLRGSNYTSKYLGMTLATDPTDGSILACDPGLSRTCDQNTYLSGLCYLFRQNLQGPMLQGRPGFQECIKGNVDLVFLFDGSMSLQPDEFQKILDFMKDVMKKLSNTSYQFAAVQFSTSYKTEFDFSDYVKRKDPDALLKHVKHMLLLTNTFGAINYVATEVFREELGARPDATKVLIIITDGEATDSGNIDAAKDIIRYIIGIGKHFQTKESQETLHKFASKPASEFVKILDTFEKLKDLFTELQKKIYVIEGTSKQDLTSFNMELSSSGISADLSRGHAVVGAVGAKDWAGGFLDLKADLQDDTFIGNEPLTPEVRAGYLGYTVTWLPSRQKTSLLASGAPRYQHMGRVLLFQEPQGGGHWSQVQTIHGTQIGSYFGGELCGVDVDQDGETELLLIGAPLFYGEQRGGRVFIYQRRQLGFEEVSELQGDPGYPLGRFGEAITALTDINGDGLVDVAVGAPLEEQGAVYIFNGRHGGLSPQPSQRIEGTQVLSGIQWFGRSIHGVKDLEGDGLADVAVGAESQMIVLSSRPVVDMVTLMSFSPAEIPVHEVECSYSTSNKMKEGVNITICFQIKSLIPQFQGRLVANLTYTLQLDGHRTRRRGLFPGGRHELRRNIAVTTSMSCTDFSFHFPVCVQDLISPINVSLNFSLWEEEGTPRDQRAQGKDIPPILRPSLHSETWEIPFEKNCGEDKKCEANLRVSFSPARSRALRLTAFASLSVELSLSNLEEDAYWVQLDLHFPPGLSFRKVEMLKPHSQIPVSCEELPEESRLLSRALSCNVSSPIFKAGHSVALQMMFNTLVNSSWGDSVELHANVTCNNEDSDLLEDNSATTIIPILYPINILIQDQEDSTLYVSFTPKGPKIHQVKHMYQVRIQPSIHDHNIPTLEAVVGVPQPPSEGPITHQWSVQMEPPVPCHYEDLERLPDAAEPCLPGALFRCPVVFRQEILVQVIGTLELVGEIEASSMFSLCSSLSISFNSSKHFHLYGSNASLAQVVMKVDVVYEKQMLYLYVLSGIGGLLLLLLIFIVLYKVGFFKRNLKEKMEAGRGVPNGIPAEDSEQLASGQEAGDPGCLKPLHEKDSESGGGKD
αLβ2 integrin, sequence (P05107 23-769): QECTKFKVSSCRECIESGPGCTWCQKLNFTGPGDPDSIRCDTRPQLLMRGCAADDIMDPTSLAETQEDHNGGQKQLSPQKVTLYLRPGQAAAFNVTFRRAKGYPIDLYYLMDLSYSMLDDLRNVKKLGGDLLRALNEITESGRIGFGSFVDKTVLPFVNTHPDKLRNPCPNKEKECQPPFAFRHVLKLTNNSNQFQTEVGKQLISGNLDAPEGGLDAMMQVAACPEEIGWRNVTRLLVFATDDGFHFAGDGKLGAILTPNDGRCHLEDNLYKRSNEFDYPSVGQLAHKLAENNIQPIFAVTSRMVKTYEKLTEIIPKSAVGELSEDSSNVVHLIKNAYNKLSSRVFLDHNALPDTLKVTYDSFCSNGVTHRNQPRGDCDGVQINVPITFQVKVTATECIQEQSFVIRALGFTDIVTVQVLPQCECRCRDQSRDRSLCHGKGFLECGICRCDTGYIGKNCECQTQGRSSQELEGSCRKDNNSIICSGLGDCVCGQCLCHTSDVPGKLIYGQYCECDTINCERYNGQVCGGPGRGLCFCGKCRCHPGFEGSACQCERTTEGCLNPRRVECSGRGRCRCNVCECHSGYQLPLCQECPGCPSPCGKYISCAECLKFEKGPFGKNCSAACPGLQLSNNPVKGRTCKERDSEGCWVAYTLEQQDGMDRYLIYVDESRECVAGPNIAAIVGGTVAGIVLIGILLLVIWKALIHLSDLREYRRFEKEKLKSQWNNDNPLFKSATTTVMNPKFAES
αMβ2 integrin, sequence (P05107 23-769, other chains not shown): as the sequence (P05107 23-769) above

With `Cc1ccccc1NC(=O)N1C(=O)CC1CC(=O)NCC(=O)O` (centres unmarked) [1b], the IC50 at α4β1 integrin [1], on α4β7 integrin, on αLβ2 integrin, on αMβ2 integrin and on α4β1 integrin [2] was greater than 5 µM each time. Further, the “agonist or antagonist behaviour, FN/Jurkat E6.1 α4β1” value on α4β1 integrin [3] is recorded as “completely ineffective”.
On to `Cc1ccccc1NC(=O)N1C(=O)CC1CC(=O)O` (centres unmarked) [1a], for which the IC50 was 0.0133 ± 0.0063 µM at α4β1 integrin [1]; greater than 5 µM at α4β7 integrin; greater than 5 µM at αLβ2 integrin; greater than 5 µM at αMβ2 integrin; 0.0101 ± 0.0049 µM on α4β1 integrin [2]. For the same compound, at α4β7 integrin (agonist = adhesion index >1, antagonist = adhesion index <1), the “agonist or antagonist behaviour, MAdCAM-1/RPMI8866 α4β7” value was “inactive”. Besides, the “agonist or antagonist behaviour, FN/Jurkat E6.1 α4β1” value on α4β1 integrin [3] is “agonist”. The EC50 on α4β1 integrin [3] (read-out: EC50 for agonists, FN/Jurkat E6.1 α4β1, increase of cell adhesion, mean ± SD, three experiments in quadruplicate) was determined as 0.0156 ± 0.0015 µM.
